Assay results taken from US20030027981A1, “Urokinase-type plasminogen activator receptor” (priority 1989, published 2003).

How the values were obtained:
u-PAR mRNA [1] = assay: Northern blot of u-PAR mRNA in RD cells; format: cell-based, human; conditions: 48 hours, PMA 150 nM, mEGF 20 ng/ml, TGF-β1 7.5 ng/ml, dexamethasone 10^−6 M
Protocol: (§1) The cells were seeded at 0.5×10^6/ml in DMEM and grown to confluence, washed in PBS^+ and kept under serum-free conditions for 48 hours followed by no additions (1, 6), by addition of Dex (10^−6M) (2, 7) PMA (150 nM) (3, 8) mEGF (20 ng/ml) (4, 9) and TGF-β1, (7.5 ng/ml) (5, 10) for 48 hours. After incubation, both the adherent and the non-adherent cells were collected, pooled, and total RNA was isolated as described in Materials and Methods. For the Northern blot analyses, 30 μg of total RNA were electrophoresed in 1.5% agarose gels under denaturing conditions and blotted onto a nitrocellulose filter. The filters were hybridized to a random primed labeled u-PAR cDNA probe. The positions of the ribosomal RNA in the Northern are indicated to the left.
(§2) The human histiocytic lymphoma cell line U937 (American Type Culture Collection (ATCC), CRL 1593) was obtained from Dr. A. Fattorssi (Research Lab. of Aeronautica Militare, Rome, Italy) and cultured in RPMI 1640 medium with 10% heat inactivated fetal calf serum and 2 mM L-glutamine at a density of 0.5×10^6 cells/ml at the onset of the experiment. The medium was supplemented with 100 units/ml of penicillin and 25 ug/ml streptomycin. The human rhabdomyosarcoma (RD) and adenocarcinoma (A549) cell lines (ATCC CCL 136 and ATCC CCl 185, respectively) were obtained from Flow laboratories, Irvine, U.K., and kept in Dulbecco's modified Eagle's medium supplemented with 10% fetal calf serum until confluency, as described earlier (Lund et al., 1988). The cell lines were tested for and found free from Mycoplasma infection. PMA and the other compounds were present during different time periods and in varying concentrations, as indicated for each experiment. The adherent cells were released by a rubber policeman, and harvested for RNA analysis as described (Mayer et al., 1988).
(§3) Total cellular RNA was isolated from the cells as described by Chomczynsky and Sacchi (1987). The RNA was analyzed by hybridizing Northern blots as described (Lund et al., 1987), except that random primed labelled plasmid probes were used. […]

u-PAR mRNA [2] = assay: Northern blot of u-PAR mRNA in A549 cells; format: cell-based, human; conditions: 48 hours, PMA 150 nM, mEGF 20 ng/ml, TGF-β1 7.5 ng/ml, dexamethasone 10^−6 M
Protocol: as §1, §2, §3

uPAR-bound u-PA = uPAR-bound u-PA (Homo sapiens, UniProt P00749); format: cell-based; conditions: peptide 0.5 mg/ml 30 minutes preincubation; PAI-1 0.9 or 4.5 nM
Protocol: U937 cells were grown in suspension in RPMI 1640 medium supplemented with 5% heat-inactivated fetal calf serum. PMA-stimulation of U937 cells was performed at a cell density of […] cells/ml with 150 nM PMA for 4 days. The adherent cell population was harvested with a rubber scraper and resuspended in PBS. […] The effect of PAI's on the activity of cell-bound u-PA was determined by the addition of varying concentrations of PAI-1 (0.18-18.4 nM) or PAI-2 (1.13-56.7 nM) to the incubations at the same time as the addition of plasminogen. Curves were then constructed of plasmin concentration against time. […] [pln]∞ was calculated from the relationship: [[…]]0) equation.2 where Δ[pln]0 is the initial rate of plasmin generation which was determined in control incubations in the absence of inhibitors. […] Association rate constants (second-order rate constants) were calculated from the slope of the line of double reciprocal plots of kapp against inhibitor concentration.

U937 cells = assay: Fate of receptor-bound ligands on U937 cells (internalization and degradation); format: cell-based, human
u-PAR mRNA [3] = assay: Northern blot of u-PAR mRNA in U937 cells; format: cell-based, human; conditions: 150 nM PMA, time course
Protocol: The cells were seeded at 0.5×10^6/ml in RPMI 1640 medium containing 10% FCS, and incubated with 150 nM PMA for the indicated number of hours. After the incubation both the adherent and the non-adherent cells were collected, pooled, and total RNA was isolated as described in Materials and Methods. For the Northern blot analyses, 30 μg of total RNA were electrophoresed in 1.5% agarose gels under denaturing conditions and blotted onto a nitrocellulose filter. The filters were hybridized to a random primed labelled u-PAR cDNA probe (A), or a β-actin cDNA probe (B). The positions of the ribosomal RNA in the Northern blot are indicated to the left.
The human histiocytic lymphoma cell line U937 (American Type Culture Collection (ATCC), CRL 1593) was obtained from Dr. A. Fattorssi (Research Lab. of Aeronautica Militare, Rome, Italy) and cultured in RPMI 1640 medium with 10% heat inactivated fetal calf serum and 2 mM L-glutamine at a density of 0.5×10^6 cells/ml at the onset of the experiment. The medium was supplemented with 100 units/ml of penicillin and 25 ug/ml streptomycin. […]
as §3

u-PAR [4] = assay: u-PAR protein level in U937 cells by cross-linking of detergent phase to 125I-ATF; format: cell-based, human; conditions: increasing time of treatment, PMA 150 nM, dibuturyl cAMP 1 mM
u-PAR [5] = molecular target: T1, u-PAR (Homo sapiens, UniProt Q03405); assay: Chemical cross-linking of 125I-ATF to purified u-PAR; format: binding; conditions: unlabelled reagent 100 nM, u-PAR approx. 1 nM, 125I-ATF approx. 1 nM
Protocol: B) Affinity column eluate was diluted to yield an approximate concentration of u-PAR of 1 nM during the assay. The samples were preincubated alone (lane 2) or in the presence of the following unlabelled reagents at a concentration of 100 nM: bovine serum albumin (lane 3), t-PA (lane 4), plasminogen (lane 5), murine epidermal growth factor (lane 6), ATF (lane 7), active 54 kD u-PA (lane 8), DFP-inactivated 54 kD u-PA (lane 9). After preincubation for 15 min at room temperature, ^125I-labelled ATF (approximately 1 nM) was added, followed by incubation for 1 hour at 4° C. After incubation, chemical cross-linking was performed with DSS, after which the samples were analyzed by SDS-PACE on a 6-16% gradient gel under non-reducing conditions and autoradiography. […] Electrophoretic mobilities of molecular weight standard proteins are inducated (kD).
Cross-linking of u-PAR in complex mixtures or purified fractions to ^125I-labelled ATF was performed as described for solubilized receptor (Nielsen et al., 1988), except that 2 mM disuccinimidylsuberate (DSS) was used for cross-linking. Cross-linking of purified u-PAR to DFP-treated u-PA for analysis by SDS-PAGE and silver-staining was performed in the same manner, except that non-labelled DFP-treated u-PA was used as the ligand.

u-PAR [6] = molecular target: T1, u-PAR; assay: Release of 125I-labelled DFP-u-PA from PMA-stimulated U937 cells by phospholipases; format: cell-based; conditions: phospholipases >5 μg/ml, compared to blind sample
cultured cells = conditions: plasmin, some cell types (Burtin and Fondaneche, 1988); cited from earlier work
HT-1080 cells = assay: Plasmin release from plasmin-loaded HT-1080 cells; format: cell-based, human
Protocol: FIG. 24. Plasmin release from HT-1080 cells into serum-free and serum-containing media. Confluent layers of HT-1080 cells were first loaded with plasmin by incubation for 1 hour at 37° C. in serum-free MEM medium (0.5 ml) containing human plasmin (0-5 μg/ml). After rinsing the cell layers three times, they were incubated for 2 hours at 37° C. with either serum-free medium (∘ - - - ∘), medium containing 10% heat-inactivated and plasminogen-depleted fetal calf serum (● - - - ●), or the latter with tranexamic acid (100 μM) (▪ - - - ▪). Plasmin was then assayed in the cell-bound fraction (A) and the media (B). At the time of transfer to new media, there was approximately 28 ng of plasmin bound to the cells from the pretreatment with 2.5 μg of plasmin/well.
In the Examples concerning plasmin binding to cells from medium, human plasmin (approximately 18 CU/mg; Kabi Diagnostica, Stockholm, Sweden) was added to the cultures at final concentrations of 0-5 μg/ml. The cells were incubated for 3 hours at 37° C. before assay of cell-bound and supernatant plasmin (see below). For plasmin release experiments, cells were loaded for 1 hour at 37° C. with 0-5 μg/ml plasmin in serum-free medium, then rinsed three times with MEM.
Plasmin bound to the cell layer was recovered and assayed as follows. After harvest of culture medium, the cells were rinsed three times with PBS (plasmin assays of further rinses were negative); then the bound plasmin was specifically eluted (Miles, L. A., and E. F. Plow, “Binding and activation of plasminogen on the platelet surface”, J. Biol. Chem. 260: 4303-4311, 1985) with a solution of 1 mM tranexamic acid in the same rinsing solution (150 μl/well). Plasmin activity was assayed in eluate samples (50 μl) as above with an incubation time of 3 hours at 37° C. Tranexamic acid at 1 mM had no effect on the thioesterase activity of plasmin in these assays.

## TGF-β1: porcine transforming growth factor β-type 1
u-PAR mRNA [1]
  u-PAR mRNA level: increased
u-PAR mRNA [2]
  u-PAR mRNA level: increased

## Gly-Arg-Gly-Asp-Ser (GRGDS; printed: Gly-Arg-Gly-Asp-Ser)
uPAR-bound u-PA
  Rates of inhibition of cell-bound u-PA by PAI-1 in the presence or absence of the peptide: the same

## CCN(CC)CCCC(C)Nc1ccnc2cc(Cl)ccc12 (stereo not shown) [chloroquine]
U937 cells
  Degradation of u-PA:PAI-1 ligand: 20%

## CCCCCCCCCCCCCC(=O)O[C@@H]1[C@@H](C)[C@@]2(O)[C@@H](C=C(CO)C[C@]3(O)C(=O)C(C)=C[C@@H]23)[C@@H]2C(C)(C)[C@]12OC(C)=O [PMA, Phorbol 12-myristate 13-acetate]
u-PAR mRNA [1]
  u-PAR mRNA level: increased
u-PAR mRNA [3]
  u-PAR mRNA level: maximal effect after 24 hours
u-PAR [4]
  u-PAR protein level (signal of 125I-ATF cross-linked to u-PAR): increase in the strength of signal
u-PAR mRNA [2]
  u-PAR mRNA level: increased

## epidermal growth factor: murine epidermal growth factor
u-PAR [5]
  Competition for binding and cross-linking of 125I-labelled ATF to purified u-PAR: no competition
u-PAR mRNA [1]
  u-PAR mRNA level: increased
u-PAR mRNA [2]
  u-PAR mRNA level: increased

## bovine serum albumin: unrelated control protein
u-PAR [5]
  Competition for binding and cross-linking of 125I-labelled ATF to purified u-PAR: no competition

## t-PA: tissue-type plasminogen activator
u-PAR [5]
  Competition for binding and cross-linking of 125I-labelled ATF to purified u-PAR: no competition

## Trypsin
u-PAR [6]
  Liberation of 125I-labelled DFP-u-PA from the cell surface: efficiently released all cell surface associated radioactivity

B1: plasmin: human plasmin (Kabi Diagnostica) (protein, UniProt P00747 20-580; P00747 581-810, looked up)
Plasmin heavy chain A: EPLDDYVNTQGASLFSVTKKQLGAGSIEECAAKCEEDEEFTCRAFQYHSKEQQCVIMAENRKSSIIIRMRDVVLFEKKVYLSECKTGNGKNYRGTMSKTKNGITCQKWSSTSPHRPRFSPATHPSEGLEENYCRNPDNDPQGPWCYTTDPEKRYDYCDILECEEECMHCSGENYDGKISKTMSGLECQAWDSQSPHAHGYIPSKFPNKNLKKNYCRNPDRELRPWCFTTDPNKRWELCDIPRCTTPPPSSGPTYQCLKGTGENYRGNVAVTVSGHTCQHWSAQTPHTHNRTPENFPCKNLDENYCRNPDGKRAPWCHTTNSQVRWEYCKIPSCDSSPVSTEQLAPTAPPELTPVVQDCYHGDGQSYRGTSSTTTTGKKCQSWSSMTPHRHQKTPENYPNAGLTMNYCRNPDADKGPWCFTTDPSVRWEYCNLKKCSGTEASVVAPPPVVLLPDVETPSEEDCMFGNGKGYRGKRATTVTGTPCQDWAAQEPHRHSIFTPETNPRAGLEKNYCRNPDGDVGGPWCYTTNPRKLYDYCDVPQCAAPSFDCGKPQVEPKKCPGR
Plasmin light chain B: VVGGCVAHPHSWPWQVSLRTRFGMHFCGGTLISPEWVLTAAHCLEKSPRPSSYKVILGAHQEVNLEPHVQEIEVSRLFLEPTRKDIALLKLSSPAVITDKVIPACLPSPNYVVADRTECFITGWGETQGTFGAGLLKEAQLPVIENKVCNRYEFLNGRVQSTELCAGHLAGGTDSCQGDSGGPLVCFEKDKYILQGVTSWGLGCARPNKPGVYVRVSRFVTWIEGVMRNN
modifications: plasmin
Cultured cells
  Kd: 50 nM
HT-1080 cells; 2 hours 37° C., 10% serum-containing medium
  Plasmin activity recovered from the cells: 40%
HT-1080 cells; 2 hours 37° C., fresh serum-free medium
  Plasmin activity remaining bound to cells: approximately 40%
HT-1080 cells; serum-containing medium
  Plasmin activity detected in the medium: about 11%
HT-1080 cells; serum-free medium
  Plasmin activity detected in the medium: 60%
